“And” between values parts separate entries of the source, which are not always exact repeats. Equal values may be shown once. “Also recorded” adds a separate entry of the source. Ends that are not written are not given here.

Series [1] relates to houseflies (Musca domestica). The experiment in a line: housefly injection assay. Conditions: for effect on housefly mortality: dose of 10, 50, and 100 nmol/g for 24 hours; for recovery of the knock-down flies: 100 pmol/g dose; for toxicity to houseflies by injection / activities in fly injection assay: in vivo; for lethal activity to houseflies: injection; for lowest dose to produce knock-down activity: within the first 4 hours post injection. Type of series: in vivo. As to the method:
An exemplary housefly injection bioassay is as follows: conditioned media is serially diluted to generate full dose-response curves from the housefly injection bioassay. Before injection, adult houseflies (Musca domestica) are immobilized with CO2, and 12-18 mg houseflies are selected for injection. A microapplicator, loaded with a 1 cc syringe and 30-gauge needle, is used to inject 0.5 μL per fly, doses of serially diluted conditioned media samples into houseflies through the body wall of the dorsal thorax. The injected houseflies are placed into closed containers with moist filter paper and breathing holes on the lids, and they are examined by knock-down ratio or by mortality scoring at 24 hours post-injection. Normalized yields are calculated. Peptide yield means the peptide concentration in the conditioned media in units of mg/L. However, peptide yields are not always sufficient to accurately compare the strain production rate. […] The cell density is represented by the light absorbance at 600 nm with a unit of “A” (Absorbance unit).
A Housefly injection assay was performed to compare the activity of Av3b with GenScript Synthetic Av3b. FIG. 33. Adult houseflies were immobilized in CO2 for 10 minutes and then transferred to a CO2 pan to keep them immobilized. Flies with weight between 12-20 mg were picked for injection. The synthetic peptides were diluted in water to proper doses for injection. 0.5 μL peptide solution was injected into housefly at the dorsal thorax using a hand-microapplicator with 1 cc all-glass syringe with 30 gouge straight needle. The injected flies were then transferred to a 2 oz transparent portion container with a wet #4 filter paper. Fly score was accessed at 2 hour, 3 hour, 4 hour and 24 hour post-injection. […] Core-5 and Core-4 synthetic polypeptides were also evaluated in the housefly injection assay. FIG. 34. […] FIG. 36.

In series [2] the test system is Aedes aegypti. The experiment in a line: adult mosquito topical bioassay. Type of series: in vivo. Conditions: for activity relative to native Av3: 3 hours post application; for Knock-down 50 at 3 hr, Average: Table 5; for Knock-down 50 at 3 hr: Table 5, single determinations; for KD50 at 3-hours: post topical application; for synergy with permethrin: permethrin 500 ppb; for paralysis and kill of adult mosquitos upon topical application: in vivo. As to the method: Native Av3, R1K mutant Av3 (Av3a) and R1K+AC-Val double mutant Av3 (Av3a-C1, or Av3b) were evaluated in the adult mosquito topical bioassay. The adult mosquitoes were ordered from Benzon Research. The adult mosquitoes were immobilized using CO2 gas and transferred onto a CO2 pad with CO2 flowing to keep them immobilized during topical applications. A hand microapplicator equipped with 1 cc glass syringe with a 30 gouge straight needle was used for the application of droplet. 0.25 μl droplet of toxin solution per mosquito was pushed out from the needle and gently applied to the ventral side of the mosquito abdomen. The treated mosquitoes were put into a 2.5 oz. clear cup with moisture filter paper and lid with breathing holes. Score the treated mosquitoes for paralysis or death within 24 hours post-application. […] FIG. 13.

The subject of series [3] is crustacean and insect sodium channels. The note with it: cited from earlier work.
Series [4] deals with houseflies. The experiment in a line: housefly feeding assay (oral toxicity). Type of series: in vivo. As to the method:
The oral toxicity of Av3+2−C1 peptide was evaluated in the housefly feeding assay by mixing 20 PPT Av3+2−C1 with fly food (1:1 sugar: dry milk) and observed for 96 hours. Knock-down and dead flies were observed starting at 24-hour post-feeding and accumulated with time. FIG. 19. Unlike the housefly injection bioassay, recovery from paralysis in the feeding assay was not observed, likely due to the fact that the houseflies were continuously dosed in the later bioassay. FIG. 20.

A short description of series [5]: incubation of purified peptide in fermentation beer with untransformed K. lactis. Conditions: 8 days at room temperature. Type of series: physicochemical. As to the method: The pLB102-YCT-18 strain's apparent expression of two Av3+2 peptides, i.e., Av3+2 and Av3+2−C1, raised the question as to whether the C-Val cleavage observed in Peak 1 (SEQ ID NO: 19) occurred during peptide expression and secretion, or whether it occurred in the spent medium/fermentation beer as a result of endogenous proteases secreted from K. lactis. To answer this question, Av3+2 peptide was purified according to the abovementioned methods, and incubated with the fermentation beer in concert with untransformed K. lactis strain (i.e., a null strain) for 8 days at room temperature (RT). FIG. 4.

[6] abbreviates: Table 9, synthetic polypeptides.
Where [7] appears, read: 1000 pmol/g dose, overnight observation.

On to PYWPWY (Pharmacophore mutant) [Core-1], for which the “effect on housefly mortality” value in series [1] is “did not appear to have an effect on housefly mortality”.

On to KSCCPCYWGGCPWGQNCYPEGCSGPK [Av3b], for which the “KD50 at 3 hr” value in series [1] (Table 8, AAA Calibrate stock at 32.5 mg/mL) is 172.22 pmol/g. The “KD50 at 3 hr” value in series [1] (Table 8, non-AAA stock at 50 mg/mL) is listed as 265.21 pmol/g. In series [2] (listed as Av3a-C1), the “activity relative to native Av3” value is “two-fold less active; also recorded: about twice as less active”; the “Knock-down 50 at 3 hr” value is 86.9 ppm and 86.1 ppm and 71.9 ppm. Moreover, in series [2], the “Knock-down 50 at 3 hr, Average” value amounted to 81.63 ppm and the “KD50 at 3-hours” value stood at 71.9 ppm.

For “RSCCPCYWGGCPWGQNCYPEGCSGPKV [Av3, reference compound]”, in series [1] (overnight observation), the “recovery of the knock-down flies” value is given as “very rare”. In addition, the “KD50 at 4-hours” value in series [1] (housefly injection) stood at 606 pmol/g. In series [1], the “toxicity to houseflies by injection” value is “toxic to houseflies” and the “lethal activity to houseflies” value is reported as “no potent lethal activity”. In series [2], the “Knock-down 50 at 3 hr, Average” value came to 45.98 ppm and the synergy with permethrin entry is recorded as “some synergy”. The “KD50 at 3-hours” value in series [2] (listed as Native Av3) was 58 ppm and 42.6 ppm. Further, in series [2] (topical application), the “recovery after maximum knock-down” value is listed as “no obvious recovery observed thereafter” and the “time at which knock-down effect reached its maximum” value is 1 h. In addition, the “selectivity for crustacean and insect sodium channels” value in series [3] is “high selectivity”.

In the case of “RSCCPCYWGGCPWGQNCYPEGCSGPK (ends and bridges not checked; cysteine pairing not given here) [Av3-C1]”, the “recovery of the knock-down flies” value in series [1] (overnight observation) is recorded as “very rare”. The “KD50 at 4-hours” value in series [1] (housefly injection) came to 521 pmol/g. Besides, the “lethal activity to houseflies” value in series [1] is “no potent lethal activity”.

Take KSCCPCYWGGCPWGQNCYPEGCSGPKV [Av3a]: in series [2], the “activity relative to native Av3” value is listed as “the same as native Av3”; the “Knock-down 50 at 3 hr, Average” value was 109.05 ppm; the “KD50 at 3-hours” value is 38.8 ppm.

With “KSCCPCYWGGCPWGQNCYPEGCSGPK [Synthetic Av3b]”, the “KD50 at 3 hr” value in series [1] (Table 8, synthetic peptide) amounted to 633.02 pmol/g; in series [1] (setting [6]) it was 540 pmol/g. In addition, the “activities in fly injection assay” value in series [1] is “showed activities in fly injection assay”.

With “GSRSCCPCYWGGCPWGQNCYPEGCSGPK (ends and bridges not checked; cysteine pairing not given here) [Av3+2−C1]”, the “recovery of knock-down flies” value in series [1] (setting [7]) is reported as “Recovery of the knock-down flies was observed”. Also, the “recovery of knock-down flies” value in series [1] (5000 and 20000 pmol/g doses) is listed as “No recovery was observed”. Also, in series [1] (housefly injection), the “KD50 at 4-hours” value came to 651 pmol/g. In addition, in series [1], the “lowest dose to produce knock-down activity” value was determined as 500 pmol/g. Further, in series [2], the “Knock-down 50 at 3 hr, Average” value came out at 747.9 ppm; the “Knock-down 50 at 3 hr” value was 952.7 ppm and 543.1 ppm; the “paralysis and kill of adult mosquitos upon topical application” value was “fast paralyze and eventually kill adult mosquitoes”; the “KD50 at 3-hours” value is 543.12 ppm and 500-900 ppm and 952.69 ppm. In addition, the “recovery after maximum knock-down” value in series [2] (topical application) is reported as “recovery was observed thereafter”. Further, in series [4] (20 PPT mixed with fly food), the “knock-down and dead flies first observed post-feeding” value stood at 24 h. For the same substance, the “oral toxicity to houseflies” value in series [4] (20 PPT mixed with fly food, observed for 96 hours) is listed as “toxic to houseflies when consumed and/or upon oral contact”. Also, in series [4] (continuous feeding, 20 PPT), the recovery from paralysis entry is listed as “not observed”.

Take “KACCPCYWGGCPWGAACYPAGCAAAK (Pharmacophore mutant) [Core 5]”: the “KD50 at 3 hr” value in series [1] (setting [6]) is reported as 1621 pmol/g. Also, the activity reduced result in series [1] (housefly injection) is reported as “around 3 fold”.

Consider “KACCPCYWAACPWAAACYAAACAAAK (Pharmacophore mutant) [Core 4]”, for which the “activities in fly injection assay” value in series [1] was “dramatically reduced activities”.

In the case of “KPYWPWYKV (Pharmacophore mutant) [Core-2]”, the “effect on housefly mortality” value in series [1] is “did not appear to have an effect on housefly mortality”.

Consider “GSRSCCPCYWGGCPWGQNCYPEGCSGPKV (not fully specified; ends and bridges not checked) [Av3+2]”, for which the “recovery of knock-down flies” value in series [1] (setting [7]) is on record as “Recovery of the knock-down flies was observed”. Moreover, in series [1] (5000 and 20000 pmol/g doses), the “recovery of knock-down flies” value was “No recovery was observed”. Besides, the “paralysis effect in combination with fermentation beer from AaIT1 expression K. lactis strain” value in series [1] (Av3+2 peptide at 500 pmol/g dose) is “synergistic instead of additive paralysis effect”. For the same substance, the “KD50 at 4-hours” value in series [1] (housefly injection) is listed as 490 pmol/g. Besides, in series [1], the “toxicity to houseflies by injection” value is listed as “toxic to houseflies” and the “lowest dose to produce knock-down activity” value was 100 pmol/g. Further, in series [2], the “Knock-down 50 at 3 hr, Average” value turned out to be 281.5 ppm; the “Knock-down 50 at 3 hr” value is 230 ppm and 235.7 ppm and 347.7 ppm and 312.6 ppm; the “paralysis and kill of adult mosquitos upon topical application” value was “fast paralyze and eventually kill adult mosquitoes”; the “KD50 at 3-hours” value is 235.71 ppm and 312.57 ppm and 200-300 ppm and 229.9 ppm. In addition, in series [2] (at 3-hours), the “KD50 relative to that observed for native Av3” value is recorded as “roughly 5 fold”. Besides, in series [2] (peptide 200 ppm), the synergy with permethrin entry was “some synergy”. Further, the “recovery after maximum knock-down” value in series [2] (topical application) is “limited recovery thereafter; also recorded: recovery observed over time; also recorded: not much recovery effects observed thereafter”. In addition, the “C-Val cleavage / stability” value in series [5] is given as “did not result in any apparent C-Val cleavage”.

With “KPYWPWYK (Pharmacophore mutant) [Core-3]”, the “effect on housefly mortality” value in series [1] is “did not appear to have an effect on housefly mortality”.

These data come from patent publication US20240360185A1, “AV3 MUTANT INSECTICIDAL POLYPEPTIDES AND METHODS FOR PRODUCING AND USING SAME” (Vestaron Corporation, priority 2018, published 2024).
